{
  "source": "patent US20130184302A1",
  "about": "“METHODS FOR TREATING IRRITABLE BOWEL SYNDROME (IBS) AND INFECTIONS” (priority 2011, published 2013)",
  "tested_on": "C. difficile infection (CDI)",
  "experiment": "CDI trial: number of unformed stools during the treatment period",
  "type": "in vivo, human",
  "text": "FIG. 18 sets for the average number of unformed stools per day of the study.",
  "data": [
    {"smiles": "CO[C@H]1/C=C/O[C@@]2(C)Oc3c(C)c(O)c4c(O)c(c5c(nc6cc(C)ccn65)c4c3C2=O)NC(=O)/C(C)=C\\C=C\\[C@H](C)[C@H](O)[C@@H](C)[C@@H](O)[C@@H](C)[C@H](OC(C)=O)[C@@H]1C", "note": "[Rifaximin, (2S,16Z,18E,20S,21S,22R, 23R,24R,25S,26S,27S,28E)-5,6,21,23,25 Pentahydroxy-27-methoxy-2,4,11,16,20,22,24,26-octamethyl-2,7-(epoxypentadeca-(1,11,13)trienimino) benzofuro (4,5-e) pyrido(1,2,-a) benzimidazole-1,15(2H)-dione,25-acetate]", "values": [
      {"measurement": "Adjusted mean number of unformed stools-ANOVA: Treatment Difference (95% CI)", "setting": "Rifaximin vs Vancomycin, treatment period", "value": "0.46 (−0.08, 1.00)"},
      {"measurement": "Overall treatment difference in number of unformed stools-Mixed Model: Treatment Difference (95% CI)", "setting": "Rifaximin vs Vancomycin, mixed effects model with treatment, center, study day as fixed effects", "value": "0.32 (−0.08, 0.72)"},
      {"measurement": "Adjusted mean number of unformed stools-ANOVA", "setting": "during the treatment period, ANOVA model with treatment and center as main effects, Rifaximin N = 117, Vancomycin N = 115", "value": 2.36}
    ]}
  ]
}
